Experimental data from US20080300298A1, “Honokiol Derivates For the Treatment of Proliferative Disorders” (priority 2005, published 2008).

Legend:
HIV-1 = assay: HIV assay in PBM cells (RT activity); type: cell-based; details: HIV-1 in human PBM cells
Experimental: The antiviral activity of the synthesized compounds and honokiol were evaluated against HIV-1 in human peripheral blood mononuclear (PBM) cells (Table 4).
Human peripheral blood mononuclear (PBM) cells (which can be obtained from Atlanta Red Cross) can be isolated by Ficoll-Hypaque discontinuous gradient centrifugation from healthy seronegative donors. Cells can be stimulated with phytohemagglutinin A (Difco, Sparks, Md.) for 2-3 days prior to use. HIV-1, such as HIV-1LAI can be obtained from the Centers for Disease Control and Prevention (Atlanta, Ga.), and can be used as the standard reference virus for the antiviral assays. The molecular infectious clones HIV-1xxBru and HIV-1M184Vpin can be obtained from Dr. John Mellors (University of Pittsburgh). Infections can be done in bulk for one hour, either with 100 TCID50/1×10^7 cells for a flask (T25) assay or with 200 TCID50/6×10^5 cells/well for a 24 well plate assay. Cells can be added to a plate or flask containing a ten-fold serial dilution of the test compound. Assay medium can be RPMI-1640 supplemented with heat inactivated 16% fetal bovine serum, 1.6 mM L-glutamine, 80 IU/ml penicillin, 80 μg/ml streptomycin, 0.0008% DEAE-Dextran, 0.045% sodium bicarbonate, and 26 IU/ml recombinant interleukin-2 (Chiron Corp, Emeryville, Calif.). AZT can be used as a positive control for the assay. Untreated and uninfected PBM cells can be grown in parallel at equivalent cell concentrations as controls. The cell cultures can be maintained in a humidified 5% CO2-air at 37° C. for 5 days and supernatants can be collected for reverse transcriptase (RT) activity.
Supernatants can be centrifuged at 12,000 rpm for 2 hours to pellet the virus. The pellet can be solubilized with vortexing in 100 μl virus solubilization buffer (VSB) containing 0.5% Triton X-100, 0.8 M NaCl, 0.5 mM phenylmethylsulfonyl fluoride, 20% glycerol, and 0.05 M Tris, pH 7.8. Ten μL of each sample can be added to 75 μL RT reaction mixture (0.06 M Tris, pH 7.8, 0.012 M MgCl2, 0.006 M dithiothreitol, 0.006 mg/ml poly (rA)n, oligo (dT)12-18, 96 μg/ml dATP, and 1 μM of 0.08 mCi/ml ^3H-thymidine triphosphate (Moravek Biochemicals, Brea, Calif.) and can be incubated at 37° C. for 2 hours. The reaction can be stopped by the addition of 100 μL 10% trichloroacetic acid containing 0.05% sodium pyrophosphate. The acid insoluble product can be harvested onto filter paper using a Packard Harvester (Meriden, Conn.), and the RT activity can be read on a Packard Direct Beta Counter (Meriden, Conn.). The RT results can be expressed in counts per minute (CPM) per milliliter. The antiviral 50% effective concentration (EC50) and 90% effective concentration (EC90) can be determined from the concentration-response curve using the median effect method (Belen'kii, S. M.; Schinazi, R. S. Multiple drug effect analysis with confidence interval. Antiviral. Res. 1994, 25, 1-11).

PBM cells = assay: cytotoxicity assay (MTT); type: cell-based, human
Experimental: (§1) The cytotoxicity of the honokiol and analogues thereof were assessed in human PBM, CEM and Vero cells (Table 4). Compounds can be evaluated for their potential toxic effects on uninfected human PBM cells, in CEM (T-lymphoblastoid cell line obtained from American Type Culture Collection, Rockville, Md.) and Vero (African green monkey kidney) cells. PBM cells can be obtained from whole blood of healthy seronegative donors (HIV-1) by single-step Ficoll-Hypaque discontinous gradient centrifugation. […] All of the cells can be plated in 96-well cell culture plates containing ten-fold serial dilutions of the test drug. […] At the end of incubation, MTT tetrazolium dye solution (Cell titer 96®, Promega, Madison, Wis.) can be added to each well and incubated overnight. The reaction can be stopped with stop solubilization solution (Promega, Madison, Wis.). […] The plates can be read at a wavelength of 570 nm using an ELISA plate reader (Bio-tek instruments, Inc., Winooski, Vt., Model #EL 312e). The 50% inhibition concentration (IC50) can be determined from the concentration-response curve using the median effect method.

[1] = tested on: CEM (T-lymphoblastoid cell line); assay: cytotoxicity assay (MTT); type: cell-based
Experimental: as §1

Structure (SMILES): Cc1cn([C@H]2C[C@H](N=[N+]=[N-])[C@@H](CO)O2)c(=O)[nH]c1=O [AZT, reference compound]
- EC50 (HIV-1; read-out: Activity anti-VIH-1 on PBM cells EC50): 14 nM
- EC90 (HIV-1; read-out: Activity anti-VIH-1 on PBM cells EC90): 49 nM
- EC50 (PBM cells): > 100 µM
- EC50 [1]: 14.3 µM
